Like-named read-outs stand apart in the source and are kept apart here. Marks after values point to notes of the source that are not given here.
What was measured:
DOPAC = test: Neurochemistry: tissue levels of DOPAC in brain regions; type: in vivo, rat; conditions: 33 μmol/kg s.c., rats, 65 min before sacrifice, n = 5
From the text: The change in turnover of dopamine in the terminal areas of the ascending dopaminergic projections of the mammalian brain can be illustrated by measuring of changes in biochemical indices in the brain e.g. changes in concentrations of dopamine metabolites such as 3,4-dihydroxyphenyl-acetic acid (DOPAC) in the striatum and frontal cortex.
The measurement of the tissue content of DOPAC is well established in the field of research since the 1960's. In short, male Sprague-Dawley rats are administered the test compound 60 minutes prior to decapitation. The brain is rapidly taken out and dissected. The striatum is rapidly frozen and subsequently quantitatively analyzed with respect to its content of DOPAC by means of HPLC and electrochemical detection. The number of animals used for each test compound/vehicle is 5/group.
After the behavioural activity sessions, the rats were decapitated and their brains rapidly taken out and put on an ice-cold petri-dish. The brains were dissected into a right and a left part of which the right part was analyzed for neurochemicals with HPLC and the left part was analyzed for gene expression. The limbic forebrain, the striatum, the frontal cortex, the hippocampus and the remaining hemispheral parts of each rat were dissected and frozen. Each brain part was subsequently analyzed with respect to its content of monoamines and their metabolites.
The monoamine transmitter substances (NA (noradrenaline), DA (dopamine), 5-HT (serotonin)) as well as one corresponding acid, (DOPAC (3,4-dihydroxyphenylacetic acid), were quantified in brain tissue homogenates by HPLC separations and electrochemical detection.
The analytical method is based on two chromatographic separations dedicated for amines or acids. Two chromatographic systems share a common auto injector with a 10-port valve and two sample loops for simultaneous injection on the two systems. Both systems are equipped with a reverse phase column (Luna C18 (2), dp 3 μm, 50*2 mm i.d., Phenomenex) and electrochemical detection is accomplished at two potentials on glassy carbon electrodes (MF-1000, Bioanalytical Systems, Inc.). The column effluent is passed via a T-connection to the detection cell or to a waste outlet. This is accomplished by two solenoid valves, which block either the waste or detector outlet. By preventing the chromatographic front from reaching the detector, better detection conditions are achieved. The aqueous mobile phase (0.4 ml/min) for the acid system contains citric acid 14 mM, sodium citrate 10 mM, Methanol 15% (v/v) and EDTA 0.1 mM. Detection potentials relative to Ag/AgCl reference are 0.45 and 0.60V. […] Detection potentials relative to Ag/AgCl reference are 0.45 and 0.65V.

[1] = tested on: monoamine transmitters (NA, DA and 5-HT); test: In vivo brain microdialysis of monoamines in striatum and frontal cortex; parameters: species or system rat; conditions: 50 μmol/kg s.c., rats; for response vs control in vivo at 50 µmol/kg: Rattus norvegicus, sc
From the text: The microdialysis technique (See, for instance, Collin and Ungerstedt, Microdialysis: user's guide, Carnegie Medicin, Stockholm, 1988) is a well-established technique for measuring extracellular levels of neurotransmitters (Ungerstedt, J Int Med, 1991, 230; 365-73). The microdialysis technique was used to measure the effect of compounds disclosed herein upon the efflux of monoamine transmitters (NA, DA and 5-HT) in striatum and frontal cortex in conscious, freely moving rats.
Male Sprague-Dawley rats weighing 280-320 g were used throughout the experiments. Before the experiment the animals were housed in groups, maximum five animals in each cage, with free access to water and food. The animals were housed at least one week prior to surgery and use in the experiments.
A modified version (Waters et al., J Neural Transm Gen Sect, 1994, 98(1); 39-55) of the I-shaped probe (Santiago and Westerink, N-S Arch Pharmacol, 1990, 342; 407-14) with the AN69 polyacrylonitrile/sodium methyl sulfonate copolymer (HOSPAL; o.d/i.d. 310/220 μm: dialysis membrane (Gambro, Lund, Sweden) was used in the microdialysis experiments. In the dorsal striatum, probes with an exposed length of 3 mm of dialysis membrane were used and in the prefrontal cortex the corresponding length was 2.5 mm. The rats were operated under isoflurane inhalation anesthesia while mounted into a Kopf stereotaxic instrument. Coordinates were calculated relative to bregma; dorsal striatum AP+1.0, ML±2.6, DV 6.2; Pf cortex, AP 15+3.2, ML+1.2, DV −4.08°, according to Paxinos and Watson (New York, Academic Press, 1986; FIG. 8 and FIG. 14). The dialysis probe was positioned in a burr hole under stereotaxic guidance and cemented with phosphatine dental cement (DAB Dental).
The rats were housed individually in cages for 48 h before the dialysis experiments, allowing them to recover from surgery and minimizing the risk of drug interactions with the anesthetics during the following experiments. During this period the rats had free access to food and water.
On the day of the experiment the rats were connected to a micro-perfusion pump via a swivel and were replaced in the cage where they could move freely within its confinements. The perfusion medium was a Ringer's solution containing (in mmol/I): NaCl; 140, CaCl2; 1.2, KCl; 3.0, MgCl2; 1.0 (Moghaddam and Bunney. Neurochem., 1989, 53; 652-4). The pump was set to a perfusion speed of 2 μl/min and 40 μl sample volume were collected every 20 min.
The rats were perfused for at least 40 min before sampling began. Five fractions of each 20 min were collected and the last three were used for the establishment of the baseline. After collection of baseline fractions, the pharmacological challenge to the dialysis experiment started. Test compounds were administrated by injection (s.c.) in a volume of 5 ml/kg, with 0.9% NaCl (saline) as vehicle.
The analytical method were based on two chromatographic separations dedicated for amines or acids. Two chromatographic systems shared a common auto injector with a 10-port valve and two sample loops for simultaneous injection on the two systems.
The acids were separated by reversed phase chromatography while the amines were separated by reversed phase ion pairing chromatography preceded by a reverse phase separation in a column switching configuration. Three separation columns (Luna C18 (2), dp 3 μm, 2 mm i.d., Phenomenex) of different lengths were used. Electrochemical detection was accomplished on glassy carbon electrodes (MF-1000, Bioanalytical Systems, Inc.)
The aqueous mobile phase (0.6 ml/min) for the acid system contained citric acid (40 mM, dipotassium hydrogen phosphate 10 mM, methanol 8-11% (v/v) and EDTA 0.1 mM. Column length was 30 mm and detection potential relative to Ag/AgCl reference was 0.74V. […]

Fc1ccc(F)c(C(F)C2CNC2)c1.O=C(O)C(=O)O (stereo not drawn) [Example 6, 3-[(2,5-Difluorophenyl)(Fluoro)Methyl]Azetidine Oxalate Salt]
DOPAC frontal cortex ± SEM (DOPAC; frontal cortex tissue): 139 ± 10% of control means | DOPAC striatum ± SEM (DOPAC; striatum tissue): 76 ± 3% of control means | NA Stri ± SEM, maximum effect compared to baseline ([1]; striatum dialysate): 1375^a percent of control | response vs control in vivo at 50 µmol/kg ([1]; frontal cortex dialysate, read-out: 5-HT FC ± SEM, maximum effect compared to baseline): 182 ± 12% | response vs control in vivo at 50 µmol/kg ([1]; striatum dialysate, read-out: 5-HT Stri ± SEM, maximum effect compared to baseline): 208% | response vs control in vivo at 50 µmol/kg ([1]; striatum dialysate, read-out: DA Stri ± SEM, maximum effect compared to baseline): 242%

Source: patent US10087142B2, “Azetidine derivatives useful as modulators of cortical cathecolaminergic neurotransmission” (Integrative Research Laboratories Sweden AB, priority 2015, dated 2018)
